Molecular target: T1, NqrB and NqrC subunits of P. bryantii B14 (Segatella baroniae, UniProt D8DWB9+D8DWC0)
T1 sequence (D8DWC0 1-385): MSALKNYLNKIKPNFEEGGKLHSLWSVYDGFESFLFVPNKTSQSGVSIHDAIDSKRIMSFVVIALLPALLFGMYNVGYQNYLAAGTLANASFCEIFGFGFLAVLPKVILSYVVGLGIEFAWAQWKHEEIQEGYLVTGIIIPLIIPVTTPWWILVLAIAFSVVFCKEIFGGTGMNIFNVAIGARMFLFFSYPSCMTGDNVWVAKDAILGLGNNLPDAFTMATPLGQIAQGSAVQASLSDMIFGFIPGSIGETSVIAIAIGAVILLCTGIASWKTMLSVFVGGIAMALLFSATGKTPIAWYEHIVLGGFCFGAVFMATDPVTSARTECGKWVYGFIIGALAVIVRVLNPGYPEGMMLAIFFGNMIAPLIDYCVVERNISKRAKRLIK
T1 sequence (D8DWB9 1-210): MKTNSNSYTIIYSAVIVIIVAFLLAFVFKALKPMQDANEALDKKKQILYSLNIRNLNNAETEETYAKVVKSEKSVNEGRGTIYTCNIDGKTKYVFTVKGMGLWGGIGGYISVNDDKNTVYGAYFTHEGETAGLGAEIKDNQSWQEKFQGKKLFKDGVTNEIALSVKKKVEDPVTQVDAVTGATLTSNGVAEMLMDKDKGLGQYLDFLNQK
Experiment: in-gel fluorescence after SDS-PAGE (excitation […] nm)
Format: biochemical

## Cc1cc2nc3c(=O)[nH]c(=O)nc-3n(C[C@H](O)[C@H](O)[C@H](O)COP(=O)(O)O)c2cc1C [flavin mononucleotide]
  in-gel fluorescence after SDS-PAGE (excitation 460 nm): verified by in-gel fluorescence detection of covalently bound FMN chromophores
